Assay in all cases: relative viability (nuclei count vs DMSO), 5 days (fraction); higher = more cells survive
Compound in assay [1]: CC1=CC(=CC=C1)NC2=NC(=CS2)C3=CC=NC=C3 + COc1cccc2cc(-c3nc([C@H]4CC[C@H](C(=O)O)CC4)n4ncnc(N)c34)[nH]c12 [OSI-027] (partner 0.5 µM)
Summed up: (§1)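 Each reported value is a median over duplicate plates. It expresses relative viability: treated-well nuclei count divided by vehicle-well nuclei count. Lung cancer cell lines in 1536-well plates were dosed by pin tool a day after seeding, alone with one drug or with a fixed anchor-drug dose plus five library-drug doses (not always all listed) in √10 steps, and nuclei were counted after 5 days.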

Compound in assay [2]: Cc1ccc(NC(=O)c2ccc(CN3CCN(C)CC3)cc2)cc1Nc1nc(-c2cccnc2)cs1 [Masitinib] + Cc1cc(Nc2cc(N3CCN(C)CC3)nc(Sc3ccc(NC(=O)C4CC4)cc3)n2)n[nH]1 [Tozasertib] (partner 0.1 µM)
Summed up: as §1

Compound in assay [3]: Cc1ccc(NC(=O)c2ccc(CN3CCN(C)CC3)cc2)cc1Nc1nc(-c2cccnc2)cs1 [Masitinib] + C[C@]1(O)C[C@@H](c2nc(-c3ccc4ccc(-c5ccccc5)nc4c3)c3c(N)nccn32)C1 [Linsitinib] (partner 1 µM)
Summed up:
as §1

Compound in assay [4]: CC1=CC(=CC=C1)NC2=NC(=CS2)C3=CC=NC=C3 + CC1(C)CCC(c2ccc(Cl)cc2)=C(CN2CCN(c3ccc(C(=O)NS(=O)(=O)c4ccc(N[C@H](CCN5CCOCC5)CSc5ccccc5)c(S(=O)(=O)C(F)(F)F)c4)cc3)CC2)C1 [Navitoclax] (partner 0.5 µM)
Summed up:
as §1

As for UMC-11, the relative viability in assay [1] (first compound 0.08 µM) is 0.448; in assay [1] (first compound 0.253 µM) it was 0.512; in assay [1] (first compound 0.8 µM), 0.469; in assay [1] (first compound 2.53 µM) it was 0.461; in assay [1] (first compound 8 µM) it was 0.443; in assay [2] (first compound 0.01 µM), 0.204. Further, the relative viability in assay [2] (first compound 0.03162 µM) is 0.207; in assay [2] (first compound 0.1 µM) it was 0.198; in assay [2] (first compound 0.3162 µM), 0.211; in assay [2] (first compound 1 µM), 0.195; in assay [3] (first compound 0.01 µM) it was 0.982; in assay [3] (first compound 0.03162 µM) it was 1.12. Moreover, the relative viability worked out at 1.27 in assay [3] (first compound 0.1 µM); 1.07 in assay [3] (first compound 0.3162 µM); 1.25 in assay [3] (first compound 1 µM); 0.281 in assay [4] (first compound 0.08 µM); 0.266 in assay [4] (first compound 0.253 µM); 0.295 in assay [4] (first compound 0.8 µM). Besides, the figures for the relative viability in assay [4] (first compound 2.53 µM) and in assay [4] (first compound 8 µM) were 0.348 and 0.478, respectively.

The values above are taken from the supplement of paper PMC10307832.
